Measured values published in US20240270744A1 (Hoffmann-La Roche Inc., priority 2021, published 2024).

Assays:
[1] = biological target: human GABAA α2β2γ1 receptor (Homo sapiens (Human), UniProt P47869+Q8N1C3); experiment: Radioligand binding assay, competition for [3H]RO7239181, γ1-containing GABAA subtypes; conditions: for Ki: [3H]RO7239181 displacement; for γ2/γ1 Selectivity Ratio / LogSel: Table 1; for γ2/γ1 Selectivity Ratio: Ki α1β3γ2 (nM)/Ki α2β2γ1 (nM); for LogSel: Log of the γ2/γ1 Ki ratio
Description: (§1) The affinity of compounds at GABAA γ1 subunit-containing receptors was measured by competition for [^3H]RO7239181 (67.3 Ci/mmol; Roche) binding to membranes from HEK293F cells (ThermoFisher R79007) expressing human (transiently transfected) receptors of composition α5β2γ1, α2β2γ1, α1β2γ1.
(§2) Harvested pellets from HEK293F cells expressing the different GABAA receptor subtypes were resuspended in Mannitol Buffer pH 7.2-7.4 (Mannitol 0.29 M, Triethylamine 10 mM, Acetic acid 10 mM, EDTA 1 mM plus protease inhibitors (20 tablets Complete, Roche Diagnostics Cat. No. 05 056 489 001 per liter)), washed two times and then resuspended at 1:10 to 1:15 dilution in the same buffer. Cell disruption was performed by stirring the suspension in a Parr vessel #4637 at 435 psi for 15 minutes, and then the suspensions were centrifuged at 1000×g for 15 minutes at 4° C. (Beckman Avanti J-HC: rotor JS-4.2). The supernatant (S1) was transferred in a 21 Schott flask and the pellet (P1) was resuspended with Mannitol Buffer up to 175 ml. The resuspended pellet was transferred into a 250 ml Corning centrifugal beaker and centrifuged at 1500×g for 10 minutes at 4° C. (Beckman Avanti J-HC: rotor JS-4.2). The supernatant (S1) was then transferred in the 21 Schott flask and the pellet was discarded. The supernatants (S1) were centrifuged in 500 ml Beckman polypropylene centrifugal beaker at 15′000×g for 30 minutes at 4° C. (Beckman Avanti J-20 XP; rotor JLA-10.500). The pellet (P2) was resuspended with Mannitol Buffer 1:1 and frozen at −80° C. The supernatant (S2) was centrifuged in 100 ml Beckman polypropylene centrifugal tubes at 48000×g for 50 minutes at 4° C. (Beckman Avanti J-20 XP; rotor JA-18). The supernatant (S3) was discarded and the pellet (P3) was resuspended with 1:1 Mannitol Buffer. The P2 and P3 protein concentration was determined with the BIORAD Standard assay method with bovine serum albumin as standard and measured on the NANO-Drop 1000. The membrane suspension was aliquots (500 μl per tube) and stored at −80° C. until required.
(§3) Membrane homogenates were resuspended and polytronised (Polytron PT1200E Kinematica AG) in Potassium Phosphate 10 mM, KCl 100 mM binding buffer at pH 7.4 to a final assay concentration determined with a previous experiment.
(§4) Assays were incubated to equilibrium for 1 hour at 4° C. and then, membranes were filtered onto unifilter (96-well white microplate with bonded GF/C filters preincubated 20-50 minutes in 0.3% Polyethylenimine) with a Filtermate 196 harvester (Packard BioScience) and washed 4 times with cold Potassium Phosphate 10 mM pH 7.4, KCl 100 mM binding buffer. After anhydrousing, filter-retained radioactivity was detected by liquid scintillation counting. Ki values were calculated using Excel-Fit (Microsoft) and are the means of two determinations.

[2] = biological target: human GABAA α1β3γ2 receptor (Homo sapiens (Human), UniProt P14867+P18507); experiment: Radioligand binding assay, competition for [3H]Flumazenil, γ2-containing GABAA subtypes; conditions: Table 1; [3H]Flumazenil displacement, HEK293F cells, mean of two determinations; read-out: Ki h-GABAA α1β3γ2
Description: The affinity of compounds at GABAA γ2 subunit-containing receptors was measured by competition for [^3H]Flumazenil (81.1 Ci/mmol; Roche) binding to HEK293F cells expressing human (transiently transfected) receptors of composition α1β3γ2.
Harvested pellets from HEK293F cells expressing the different GABAA γ2 receptor subtypes were resuspended in Mannitol Buffer pH 7.2-7.4 and processed as described above for the cells expressing the GABAA γ1 subunit-containing receptors.
Assays were incubated to equilibrium for 1 hour at 4° C. and harvested onto GF/C uni-filters (Packard) by filtration using a Packard harvester and washing with ice-cold wash buffer (50 mM Tris; pH 7.5). After anhydrousing, filter-retained radioactivity was detected by liquid scintillation counting. Ki values were calculated using Excel-Fit (Microsoft) and are the means of two determinations.

[3] = biological target: human GABAA α5β2γ1 receptor (Homo sapiens (Human), UniProt P31644+Q8N1C3); experiment: Radioligand binding assay, competition for [3H]RO7239181, γ1-containing GABAA subtypes; conditions: Table 1; [3H]RO7239181 displacement, membranes from HEK293F cells, mean of two determinations
Description: as §1, with “α1β2γ1. For better protein expression of the α2 subunit-containing receptors, the 28 amino acid long signal peptide (Met1 to Ala28) of the human GABAA α2 subunit was substituted by the 31 amino acid long signal peptide (Met1 to Ser31) of human GABAA α5 subunit.” for “α1β2γ1.”
as §2, §3
as §4, with “Radioligand binding assays were carried out in a volume of 200 μL (96-well plates) which contained 100 μL of cell membranes, [3H]RO7239181 at a concentration of 1.5 nM (α5β2γ1) or 20-30 nM (α1β2γ1, α2β2γ1) and the test compound in the range of [0.3-10000]=10^−9 M. Nonspecific binding was defined by 10×10^−6 (α5β2γ1) and 30×10^−6 M RO7239181 and typically represented less than 5% (α5β2γ1) and less than 20% (β1β2γ1, α2β2γ1) of the total binding. Assays” for “Assays”
Representative test results, obtained by the above described assay measuring binding affinity to HEK293 cells expressing human (h) receptors, are shown in the Table 1.

[4] = Ki h-GABAA α2β2γ1, Table 1, membranes from HEK293F cells, mean of two determinations

SMILES	Ki [1, 4]	Ki ([1]; Ki h-GABAA α2β2γ1, Table 2)	γ2/γ1 Selectivity Ratio [1]	LogSel [1]	Ki [2]	Ki [3]
C[C@@H]1N=C(c2c(F)cccc2F)c2c(cnc(C(F)(F)F)c2Cl)-n2nc(C(=O)N3CCS(=O)(=O)CC3)nc21 [Example 11, [(7S)-11-chloro-9-(2,6-difluorophenyl)-7-methyl-12-(trifluoromethyl)-2,3,5,8,13-pentazatricyclo[8.4.0.02,6]tetradeca-1(10),3,5,8,11,13-hexaen-4-yl]-(1,1-dioxo-1,4-thiazinan-4-yl)methanone]	9.6 nM	9.6 nM	818	2.91	7890 nM	4.6 nM
C[C@@H]1N=C(c2c(F)cccc2F)c2c(cnc(C(F)(F)F)c2Cl)-n2nc(NC(=O)C3COC3)nc21 [Example 12, N-[(7S)-11-chloro-9-(2,6-difluorophenyl)-7-methyl-12-(trifluoromethyl)-2,3,5,8,13-pentazatricyclo[8.4.0.02,6]tetradeca-1(10),3,5,8,11,13-hexaen-4-yl]oxetane-3-carboxamide]	69.2 nM	69.2 nM	178	2.25	12300 nM	5.2 nM
C[C@@H]1N=C(c2c(F)cccc2F)c2c(cnc(C(F)(F)F)c2Cl)-n2nc(N3CCCC3=O)nc21 [Example 13, 1-[(7S)-11-chloro-9-(2,6-difluorophenyl)-7-methyl-12-(trifluoromethyl)-2,3,5,8,13-pentazatricyclo[8.4.0.02,6]tetradeca-1(10),3,5,8,11,13-hexaen-4-yl]pyrrolidin-2-one]	32 nM	32 nM	166	2.22	5300 nM	3.1 nM
C[C@H](O)CNC(=O)c1nc2n(n1)-c1cnc(C(F)(F)F)c(Cl)c1C(c1c(F)cccc1F)=N[C@H]2C [Example 14, (7S)-11-chloro-9-(2,6-difluorophenyl)-N-[(2S)-2-hydroxypropyl]-7-methyl-12-(trifluoromethyl)-2,3,5,8,13-pentazatricyclo[8.4.0.02,6]tetradeca-1(10),3,5,8,11,13-hexaene-4-carboxamide]	46 nM	39.2 nM	190	2.28	8760 nM	3.7 nM
C[C@@H]1N=C(c2c(F)cccc2F)c2c(cnc(C(F)(F)F)c2Cl)-n2nc(C(=O)NCCO)nc21 [Example 15, (7S)-11-chloro-9-(2,6-difluorophenyl)-N-(2-hydroxyethyl)-7-methyl-12-(trifluoromethyl)-2,3,5,8,13-pentazatricyclo[8.4.0.02,6]tetradeca-1(10),3,5,8,11,13-hexaene-4-carboxamide]	34.5 nM	36.5 nM	275	2.44	9470 nM	2.6 nM
C[C@@H]1N=C(c2c(F)cccc2F)c2c(cnc(C(F)(F)F)c2Cl)-n2nc(C(=O)NC[C@@H](C)O)nc21 [Example 16, (7S)-11-chloro-9-(2,6-difluorophenyl)-N-[(2R)-2-hydroxypropyl]-7-methyl-12-(trifluoromethyl)-2,3,5,8,13-pentazatricyclo[8.4.0.02,6]tetradeca-1(10),3,5,8,11,13-hexaene-4-carboxamide]	39.8 nM	35.3 nM	238	2.38	9470 nM	4.1 nM
Cc1nnc2n1-c1cnc(C(F)(F)F)c(Cl)c1C(c1c(F)cccc1Cl)=N[C@H]2C [Example 17, (7S)-11-chloro-9-(2-chloro-6-fluoro-phenyl)-3,7-dimethyl-12-(trifluoromethyl)-2,4,5,8,13-pentazatricyclo[8.4.0.02,6]tetradeca-1(10),3,5,8,11,13-hexaene]	22.6 nM	21 nM	215	2.33	4870 nM	3.8 nM
C[C@@H]1N=C(c2c(F)cccc2F)c2c(cnc(C(F)(F)F)c2Cl)-n2cc(C(=O)NCCO)nc21 [Example 19, (7S)-11-chloro-9-(2,6-difluorophenyl)-N-(2-hydroxyethyl)-7-methyl-12-(trifluoromethyl)-2,5,8,13-tetrazatricyclo[8.4.0.02,6]tetradeca-1(10),3,5,8,11,13-hexaene-4-carboxamide]	21.2 nM	23.2 nM	241	2.38	5100 nM	3.8 nM
C[C@@H]1N=C(c2c(F)cccc2F)c2c(cnc(C(F)(F)F)c2Cl)-n2c1nc1c2CCC1 [Example 20, (10S)-6-chloro-8-(2,6-difluorophenyl)-10-methyl-5-(trifluoromethyl)-1,4,9,12-tetrazatetracyclo[9.6.0.02,7.013,17]heptadeca-2(7),3,5,8,11,13(17)-hexaene]	11.8 nM	15.1 nM	92	1.96	1090 nM	4.9 nM
C[C@@H]1N=C(c2c(F)cccc2F)c2c(cnc(C(F)(F)F)c2Cl)-n2nc(C(=O)NCC(C)(C)O)nc21 [Example 21, (7S)-11-chloro-9-(2,6-difluorophenyl)-N-(2-hydroxy-2-methyl-propyl)-7-methyl-12-(trifluoromethyl)-2,3,5,8,13-pentazatricyclo[8.4.0.02,6]tetradeca-1(10),3,5,8,11,13-hexaene-4-carboxamide]	72.3 nM	72.3 nM	156	2.19	11300 nM	10.7 nM
